According to the supplement of paper PMC10307832:

Assays:
Assay in all cases: relative viability (nuclei count vs DMSO), 5 days (fraction); higher = more cells survive
NCI-H650 = tested on: NCI-H650
Procedure, shortened: (§1)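 For relative viability, nuclei counts in treated wells were divided by those in vehicle wells. Lung cancer cell lines had been pin-tool dosed in 1536-well plates the day after seeding and cultured for 5 days, then fixed and stained in one step (final 0.05% Triton X-100, 1% formaldehyde, 1 ug/ml Hoechst) and imaged at 4×. Doses were one drug alone or a fixed anchor-drug dose plus five library-drug doses (not always all listed) in √10 steps, and values are duplicate-plate medians.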

LCLC-97TM1 = tested on: LCLC-97TM1
Procedure, shortened: as §1

ChaGo-K-1 = tested on: ChaGo-K-1
Procedure, shortened: as §1

HCC-827 = tested on: HCC-827
Procedure, shortened: as §1

NCI-H1395 = tested on: NCI-H1395
Procedure, shortened: as §1

NCI-H1793 = tested on: NCI-H1793
Procedure, shortened: as §1

UMC-11 = tested on: UMC-11
Procedure, shortened: as §1

NCI-H520 = tested on: NCI-H520
Procedure, shortened: as §1

NCI-H1944 = tested on: NCI-H1944
Procedure, shortened: as §1

NCI-H2087 = tested on: NCI-H2087
Procedure, shortened: as §1

NCI-H1355 = tested on: NCI-H1355
Procedure, shortened: as §1

NCI-H1651 = tested on: NCI-H1651
Procedure, shortened: as §1

Question: With `COc1cc(N2CCC(C(N)=O)CC2)ccc1Nc1nc(N)c(Cl)c(Nc2ccccc2S(=O)(=O)C(C)C)n1` [HG-5-88-01] + Cc1cc(Nc2cc(N3CCN(C)CC3)nc(Sc3ccc(NC(=O)C4CC4)cc3)n2)n[nH]1 [Tozasertib] (partner 0.1 µM) as the molecule, how does the relative viability (NCI-H650; first compound 0.4 µM) read?
Answer: 0.594

Question: And the relative viability (NCI-H650; first compound 1.265 µM)?
Answer: 0.461

Question: And the relative viability (NCI-H650; first compound 4 µM)?
Answer: 0.523

Question: And the relative viability (LCLC-97TM1; first compound 0.04 µM)?
Answer: 0.215

Question: And the relative viability (LCLC-97TM1; first compound 0.1265 µM)?
Answer: 0.205

Question: And the relative viability (LCLC-97TM1; first compound 0.4 µM)?
Answer: 0.226

Question: What about the relative viability (LCLC-97TM1; first compound 1.265 µM) of the same molecule?
Answer: 0.148

Question: And the relative viability (LCLC-97TM1; first compound 4 µM)?
Answer: 0.0909

Question: And the relative viability (ChaGo-K-1; first compound 0.04 µM)?
Answer: 0.213

Question: And the relative viability (ChaGo-K-1; first compound 0.1265 µM)?
Answer: 0.25

Question: What about the relative viability (ChaGo-K-1; first compound 0.4 µM) of the same molecule?
Answer: 0.155

Question: And the relative viability (ChaGo-K-1; first compound 1.265 µM)?
Answer: 0.229

Question: What about the relative viability (ChaGo-K-1; first compound 4 µM) of the same molecule?
Answer: 0.211

Question: What about the relative viability (HCC-827; first compound 0.04 µM) of the same molecule?
Answer: 0.475

Question: What about the relative viability (HCC-827; first compound 0.1265 µM) of the same molecule?
Answer: 0.439

Question: What about the relative viability (HCC-827; first compound 0.4 µM) of the same molecule?
Answer: 0.401

Question: What about the relative viability (HCC-827; first compound 1.265 µM) of the same molecule?
Answer: 0.346

Question: And the relative viability (HCC-827; first compound 4 µM)?
Answer: 0.263

Question: And the relative viability (NCI-H1395; first compound 0.04 µM)?
Answer: 0.79

Question: What about the relative viability (NCI-H1395; first compound 0.1265 µM) of the same molecule?
Answer: 0.692

Question: And the relative viability (NCI-H1395; first compound 0.4 µM)?
Answer: 0.859

Question: And the relative viability (NCI-H1395; first compound 1.265 µM)?
Answer: 0.716

Question: And the relative viability (NCI-H1395; first compound 4 µM)?
Answer: 0.65

Question: And the relative viability (NCI-H1793; first compound 0.1265 µM)?
Answer: 0.313

Question: And the relative viability (NCI-H1793; first compound 0.4 µM)?
Answer: 0.293

Question: And the relative viability (NCI-H1793; first compound 4 µM)?
Answer: 0.216

Question: And the relative viability (UMC-11; first compound 0.04 µM)?
Answer: 0.213

Question: What about the relative viability (UMC-11; first compound 0.1265 µM) of the same molecule?
Answer: 0.205

Question: What about the relative viability (UMC-11; first compound 1.265 µM) of the same molecule?
Answer: 0.192

Question: What about the relative viability (UMC-11; first compound 4 µM) of the same molecule?
Answer: 0.191

Question: And the relative viability (NCI-H520; first compound 0.04 µM)?
Answer: 0.457

Question: What about the relative viability (NCI-H520; first compound 0.1265 µM) of the same molecule?
Answer: 0.433

Question: And the relative viability (NCI-H520; first compound 0.4 µM)?
Answer: 0.435

Question: What about the relative viability (NCI-H520; first compound 1.265 µM) of the same molecule?
Answer: 0.414

Question: And the relative viability (NCI-H520; first compound 4 µM)?
Answer: 0.452

Question: And the relative viability (NCI-H1944; first compound 0.04 µM)?
Answer: 0.268

Question: And the relative viability (NCI-H1944; first compound 0.1265 µM)?
Answer: 0.274

Question: What about the relative viability (NCI-H1944; first compound 0.4 µM) of the same molecule?
Answer: 0.261

Question: And the relative viability (NCI-H1944; first compound 1.265 µM)?
Answer: 0.239

Question: What about the relative viability (NCI-H1944; first compound 4 µM) of the same molecule?
Answer: 0.235

Question: And the relative viability (NCI-H2087; first compound 0.04 µM)?
Answer: 0.266

Question: And the relative viability (NCI-H2087; first compound 0.1265 µM)?
Answer: 0.203

Question: What about the relative viability (NCI-H2087; first compound 0.4 µM) of the same molecule?
Answer: 0.262

Question: What about the relative viability (NCI-H2087; first compound 1.265 µM) of the same molecule?
Answer: 0.22

Question: What about the relative viability (NCI-H2087; first compound 4 µM) of the same molecule?
Answer: 0.14

Question: What about the relative viability (NCI-H1355; first compound 0.04 µM) of the same molecule?
Answer: 0.601

Question: And the relative viability (NCI-H1355; first compound 0.1265 µM)?
Answer: 0.545

Question: What about the relative viability (NCI-H1355; first compound 0.4 µM) of the same molecule?
Answer: 0.493

Question: What about the relative viability (NCI-H1355; first compound 1.265 µM) of the same molecule?
Answer: 0.454

Question: And the relative viability (NCI-H1355; first compound 4 µM)?
Answer: 0.342

Question: And the relative viability (NCI-H1651; first compound 0.04 µM)?
Answer: 0.71

Question: And the relative viability (NCI-H1651; first compound 0.1265 µM)?
Answer: 0.745

Question: What about the relative viability (NCI-H1651; first compound 0.4 µM) of the same molecule?
Answer: 0.7

Question: And the relative viability (NCI-H1651; first compound 1.265 µM)?
Answer: 0.388

Question: And the relative viability (NCI-H1651; first compound 4 µM)?
Answer: 0.455
